Measurements reported in patent publication US11365227B2, “Peptide and pharmaceutical compositions of same for use as an antimicrobial and in cancer treatment” (UNIVERSITAT DE VALÈNCIA, priority 2017, dated 2022).
Where a SMILES comes first, the peptide text is derived from it.

Tests used:
S. aureus [1] = assay: Transmission electron microscopy of S. aureus cells treated with peptides; type: cell-based, Staphylococcus aureus subsp. aureus CECT 4013; conditions: 25 μg/mL, 1 h
Description: The samples were prepared in the same way as for scanning electron microscopy, except for the series of graded dehydration with ethanol, in which only the 90° grade was reached. Then the samples were included in resin in 4 steps: ethanol 96°—resin LR-White 2:1 (20 h), ethanol 100°—resin 2:1 (20 h), ethanol 100°—resin 1:2 (20 h) and 100% resin (24 h at 60° C.). After the samples were included in the resin the block was prepared for ultrathin cuts of 60 nm in the equipment Leica UC6 Ultracut Microtome.
Transmission electron microscopy provides high-resolution images which were used to view the ultrastructural damage caused by the peptides inside the bacteria. The cells of S. aureus CECT 4013 were treated with the peptides hBD-3, TcDef3-pep and PaSK at a concentration of 25 μg/mL, for 1 h, and analysed using transmission electron microscopy (FIG. 6). In cells without treatment, an intact cytoplasm membrane (3) and peptidoglycane wall (2) were observed, typical of a Gram+ bacteria as S. aureus, as well as a division septum (1) without malformations, while in treated cells different types of alterations were observed. […] Small size circular structures (9) are observed. These structures show a different electrodensity from cells and lack a cytoplasm membrane and peptidoglycane wall. The biofilm formed by the cells treated with peptides was also observed in the images obtained by transmission electron microscopy (FIG. 7) and it was not observed in the cells treated with human defensin hBD-3 (FIG. 6).

[2] = tested on: MDA-MB-231 triple-negative breast cancer cells; assay: Cell viability MTS assay, cytotoxic effect; type: cell-based, human; conditions: around 100 μM (400 μg/mL)
Description: Cell viability was determined by the MTS method. The MDA-MB-231 cells cultured in plates with 96 wells at 37° C. in an atmosphere humidified with 10% CO2 to a density of 5×10^3 cells/well were incubated with different concentrations of the peptide PaSK for 24 h. Then 20 μL were added of the solution MTS/PMS (3-(4,5-dimethylthiazol-2-yl)-5-(3-carboxymethoxyfenyl)-2-(4-sulphophenyl)-2H-tetrazole/phenazine methosulphate) to each well and after incubating for 2 h in the dark the absorbance at 490 nm was read in a plate reader. The percentage reduction in number of cells was calculated according to the formula (1−E/C)×100, where E is the absorbance of the cells treated with the peptide and C is the absorbance of the samples of the control cells.
The cytotoxic effect of the peptide PaSK has been studied in two cell lines of triple-negative breast cancer cells, one human (MDA-MB-231) and one mouse (4T1), and a line of normal mouse mammary epithelial cells (HC-11). To this end, a cell viability MTS assay was performed, based on the use of a compound derived from tetrazolium that is reduced in live cells to form a soluble coloured product. […]

S. aureus [3] = assay: Antimicrobial activity by flow cytometry (SYBR Green / propidium iodide); type: cell-based, Staphylococcus aureus subsp. aureus CECT 4013
Description: The strain used was CECT 4013 of S. aureus subsp. aureus, publicly accessible deposited in the Spanish Type Culture Collection (CECT).
Starting from cells of S. aureus cultured overnight in a liquid medium LB (peptone 1%, yeast extract 0.5% and NaCl 1%) at 37° C. with stirring, aliquots were obtained in a new liquid medium and allowed to grow until reaching an optical density at 600 nm (OD600) of 0.5, optimum for detection in the flow cytometer. Aliquots were prepared with a concentration of 5×10^6 cfu/100 μL of S. aureus to which were added 10, 15, 20 and 25 μg/mL of PaSK, 25 μg/mL of TcDef3-pep and H2O (negative control), solvent used to dilute the peptides. The mixtures were incubated at 37° C. for 8 h and marked with the fluorochromes SYBR Green (Invitrogen) (25 μL of a SYBR Green 25× solution in H2O) that stains all the cells and propidium iodide (Sigma) (10 μL of propidium iodide 1 mg/mL) that stains dead cells. Finally, the cell death caused by the peptides was analysed by flow cytometry with the equipment BD Facs Verse (Becton Dickinson), from the cell culture and flow cytometry section of the Central Services for Research Support of the University of Valencia. The experiments were performed in duplicate.
The flow cytometer forces cells to pass one by one through a needle, creating a thin line of liquid and detecting how the laser beam (argon emission laser at 488 nm, in the equipment used) interacts with the cells, depending on how the incident light is deviated and the fluorescence emitted by the excited fluorochromes. The results are presented as graphs obtained with the analysis program BD Facs suite v1.0.5.3841 (Becton Dickinson). […] Then, a second graph is obtained with the parameters SSC and FITC (fluorescence parameter indicating the cells containing SYBR Green), to differentiate the cells from the other particles that may be present in the sample. Lastly, a third graph is obtained with the fluorescence parameters FITC and PerCPCy5.5 (indicating the cells stained with propidium iodide) to differentiate the cells that have been stained only by SYBR Green from those stained with propidium iodide, which will be those that have died.
The antimicrobial activity of the peptide PaSK was determined by flow cytometry. […] Therefore, the use of these two fluorochromes provides a method for determining viable cells, quantifying the loss of cell viability from the increase in propidium iodide inside the dead cells.
After incubating the cells of strain CECT 4013 of S. aureus with 25 μg/mL of the peptides TcDef3-pep and PaSK, the percentage of dead cells was determined. […] FIGS. 1A-1D show the graphs corresponding to the fluorescence obtained in the windows of the flow cytometer.

## CC[C@H](C)[C@H](NC(=O)[C@H](CCCNC(=N)N)NC(=O)[C@H](CCCNC(=N)N)NC(=O)[C@H](CCCCN)NC(=O)[C@H](CC(N)=O)NC(=O)[C@H](CS)NC(=O)[C@H](Cc1ccc(O)cc1)NC(=O)CNC(=O)CNC(=O)[C@H](CCCNC(=N)N)NC(=O)[C@H](CCCCN)NC(=O)[C@H](CCCNC(=N)N)NC(=O)[C@H](CCCCN)NC(=O)[C@H](CC(C)C)NC(=O)[C@H](CC(C)C)NC(=O)[C@H](CS)NC(=O)[C@H](Cc1c[nH]cn1)NC(=O)[C@H](C)NC(=O)[C@H](C)NC(=O)[C@H](CS)NC(=O)[C@H](C)NC(=O)[C@H](C)NC(=O)[C@H](Cc1c[nH]cn1)NC(=O)[C@H](CC(N)=O)NC(=O)[C@@H](NC(=O)[C@@H](N)CCCCN)C(C)C)C(=O)N[C@@H](CS)C(=O)N[C@H](C(=O)N[C@@H](CS)C(=O)N[C@@H](CCCNC(=N)N)C(=O)N[C@@H](CC(N)=O)C(=O)O)C(C)C [PaSK] (H-KVNHAACAAHCLLKRKRGGYCNKRRICVCRN-OH; N-terminus and C-terminus assumed)
S. aureus [1]
  ultrastructural damage, transmission electron microscopy: detachments, malformations and thinning of the membrane
[2]
  cytotoxicity compared with the other cell lines: significantly more cytotoxic
S. aureus [3]; 10 μg/mL, same conditions
  percentage of cell death (cytotoxicity): ~100%
S. aureus [3]; 25 μg/mL, 8 h at 37° C., 2 replicates
  percentage of dead cells (cytotoxicity): ~100%
